Data published in USRE44543E1, “Naphthalenic compounds as termite bait toxicants” (priority 2002, dated 2013).

What was measured:
Assay type in all cases: in vivo, Coptotermes formosanus
Formosan termites = assay: Foraging box bait matrix bioassay, NHA sodium salt (Example 1)
Method: (§1) For bait matrices with a final concentrations of NHA sodium salt of either 250 ppm or 500 ppm, the following procedure was used. A total of 25 mg or 50 mg, respectively of the NHA sodium salt was weighed using a Mettler balance. The NHA sodium salt complex was placed into a 50 ml sterile screw cap conical tube (#62.547.004; Sarstedt, Newton, N.C.) and dissolved with 40 ml nutritive solution described in Example 2 of U.S. patent application Ser. No. 09/294,499 filed Apr. 20, 1999, hereby incorporated by reference. Under a laminar flow hood, this product was mixed with 27 ml more of sterile nutritional supplement in a 250 ml sterile glass bottle (prepared as reported by M. G. Rojas and J. A. Morales-Ramos, April 2001, “Bait matrix for delivery of chitin synthesis inhibitors to the Formosan subterranean termite [Isoptera: Rhinotermitidae],” J. Econ. Entomol. 94(2) :506-510) hereby incorporated by reference. The bottle was tightly closed with a screw cap and manually shaken for 2 minutes. The mixture was added to 33 g of sterile cellulose as reported by Rojas and Morales-Ramos (2001) supra. The mixture was manually homogenized using a stainless steel spatula. To encase the bait matrix, tubes made of fibrous casing material (#124B; L.E.M. Products, Inc., Miamitown, Ohio) were cut into 150 mm long portions as reported by Rojas and Morales-Ramos (2001) supra. Fifty grams of bait matrix containing NHA sodium salt was compacted into one end of the inlet tube, and the open end and of the inlet tube was closed with a rubber band. The bait casing was placed inside of the foraging box adjacent to a 10 g piece of pine wood, taking care that it was partially covered with sand. Control bait matrix was prepared minus NHA, and presented in the same way as the treatment matrix to Formosan termites taken from three different colonies, with two boxes per locality totaling six boxes of 2500 termites per treatment. (Rojas and Morales-Ramos [2001] supra). All the experimental boxes were maintained under dark conditions at 27±1° C., and 90±2% relative humidity. Observations were done every 72 hours until all the termites died. The time to reach 100% mortality was measured and recorded. Mean comparisons among treatments and control were conducted.

C. formosanus = assay: ARS bait matrix bioassay with NHA sodium salt, protocol of Example 1 (Example 2); conditions: concentrations greater than 500 and up to 1500 ppm; also effective
Method: as §1
N-hydroxynaphthyalimide (NHA) which is commercially available as pure chemical, is dissolved in distilled water using a sterile container; At concentrations of 500 ppm, NHA is effective as bait active ingredient taking a mean time to kill C. formosanus in 2½ months in lab conditions. […]

[1] = test system: Formosan subterranean termite; assay: Field test of NHA pressure treated aspen wood in bait stations, New Orleans
Text: NHA as a wood preservative has been extensively studied (F. Green III, T. A. Kuster, L. Ferge, and T. L. Highley, 1997. Protection of southern pine from fungal decay and termite damage with N,N-Naphthaloylhydroxylamine. Inter. Biodeter. and Biodeg. 39(2-3):103-111; D. M. Crawford and F. Green III, 1999. Protection of southern pine using N,N-Naphthaloylhydroxylamine: Field tests, soft-rot cellars and aquatic bioassay leach testing. Internat. Res. Group on Wood Preserv. Doc. No: IRG/WP 99-30204). Monitoring termite activity in baiting systems is conducted by the use of wooden interceptors constructed from out of aspen, southern yellow pine, white or yellow poplar. In humid environments such as the Southeastern United States, a problem with degradations of such interceptors by fungi frequently occurs. We have noticed that low concentrations of NHA from 200 to 1000 ppm is acceptable to retard fungal growth without presenting any deleterious effect in the termites when incorporated into wooden materials. For bait efficacy, when the chemical is impregnated on pieces of wood the concentration that is retained varies as well as the efficacy. […]

SMILES: O=C1c2cccc3cccc(c23)C(=O)N1O [NHA, N-hydroxynaphthalimide]
- acceptability of the bait (Formosan termites; NHA >500 ppm): reduced
- time some termite colonies required to start feeding on the bait (Formosan termites; NHA >500 ppm): more than 8 hours
- time to mortality of a 2,500-worker colony (Formosan termites; depending on the health and age of the colony): about 3 weeks
- NHA concentration at which consumption is almost non existent (Formosan termites; in vivo): above 20,000 ppm
- NHA concentration at which the bait becomes unpalatable (Formosan termites; in vivo): above 10,000 ppm
- mean killing times versus 500 ppm (C. formosanus): not significantly different
- optimal NHA concentration after field testing [1]: 500 ppm
